The target in data set [1] is T1, NMDAR2A expressing HEK cell membranes (Homo sapiens, UniProt Q05586+Q12879).
T1 construct: expressed in transfected cells; host or cells: HEK cells (membrane extract)
The data set can be described thus: NMDAR agonist assay, [3H]MK-801 binding, NMDAR2A. As to conditions: 0.25 h, 50 μM glutamate; read-out: NMDAR2A A: % maximal [3H]MK-801 binding relative to 1 mM glycine. Also on record: key to NMDAR2A B: log EC50: 0=−; ≥1×10^−9 M (e.g., −8)=+; <1×10^−9 M (e.g., −10)=++. It is filed as biochemical. Put shortly:
(§1)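 HEK membranes (300 μg protein) expressing each subtype were preincubated 15 min at 25 °C with 50 μM glutamate and compound (1×10^−15–1×10^−7 M) or 1 mM glycine. [3H]MK-801 (0.3 μCi) binding then ran 15 min under nonequilibrium conditions, followed by filtration. EC50 and % maximal binding against 1 mM glycine came from three-parameter fits of baseline-subtracted DPM (N=2).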

Data set [2] concerns the target T2, NMDAR2A expressing HEK cell membranes (Homo sapiens, UniProt Q12879).
T2 construct: expressed in transfected cells; host or cells: HEK cells (membrane extract)
The data set is described as follows: NMDAR agonist assay, [3H]MK-801 binding, NMDAR2A. The data set is classed as biochemical. Details: key to NMDAR2A B: log EC50: 0=−; ≥1×10^−9 M (e.g., −8)=+; <1×10^−9 M (e.g., −10)=++. As to conditions: 50 μM glutamate. The gist of the method:
as §1

The target in data set [3] is T3, NMDAR2B expressing HEK cell membranes (Homo sapiens, UniProt Q05586+Q13224).
T3 construct: expressed in transfected cells; host or cells: HEK cells (membrane extract)
The data set is described as follows: NMDAR agonist assay, [3H]MK-801 binding, NMDAR2B. The data set is classed as biochemical. Particulars: 50 μM glutamate. Put shortly: as §1

Data set [4] deals with T4, NMDAR2C expressing HEK cell membranes (Homo sapiens, UniProt Q14957).
T4 construct: expressed in transfected cells; host or cells: HEK cells (membrane extract)
The data set is described as follows: NMDAR agonist assay, [3H]MK-801 binding, NMDAR2C. It is filed as biochemical. As to conditions: 50 μM glutamate. Here is the method:
(§2) Assays were conducted as described by Moskal et al., “GLYX-13: a monoclonal antibody-derived peptide that acts as an N-methyl-D-aspartate receptor modulator,” Neuropharmacology, 49, 1077-87, 2005. These studies were designed to determine if the test compounds act to facilitate NMDAR activation in NMDAR2A, NMDAR2B, NMDAR2C or NMDAR2D expressing HEK cell membranes as measured by increases in [^3H]MK-801 binding.
(§3) In the assay, 300 μg of NMDAR expressing HEK cell membrane extract protein was preincubated for 15 minutes at 25° C. in the presence of saturating concentrations of glutamate (50 μM) and varying concentrations of test compound (1×10^−15 M-1×10^−7 M), or 1 mM glycine. Following the addition of 0.3 μCi of [^3H]MK-801 (22.5 Ci/mmol), reactions were again incubated for 15 minutes at 25° C. (nonequilibrium conditions). Bound and free [^3H]MK-801 were separated via rapid filtration using a Brandel apparatus.
In analyzing the data, the DPM (disintegrations per minute) of [^3H]MK-801 remaining on the filter were measured for each concentration of test compound or for 1 mM glycine. The DPM values for each concentration of a ligand (N=2) were averaged. The baseline value was determined from the best fit curve of the DPM values modeled using the GraphPad program and the log(agonist) vs. response(three parameters) algorithm was then subtracted from all points in the dataset. The % maximal [^3H]MK-801 binding was then calculated relative to that of 1 mM glycine: all baseline subtracted DPM values were divided by the average value for 1 mM glycine. The EC50 and % maximal activity were then obtained from the best fit curve of the % maximal [^3H]MK-801 binding data modelled using the GraphPad program and the log(agonist) vs. response(three parameters) algorithm. […]

The target in data set [5] is T5, NMDAR2D expressing HEK cell membranes (Homo sapiens, UniProt O15399).
T5 construct: expressed in transfected cells; host or cells: HEK cells (membrane extract)
The data set is described as follows: NMDAR agonist assay, [3H]MK-801 binding, NMDAR2D. It is filed as biochemical. Particulars: 50 μM glutamate. Here is the method:
as §2, §3
(§4) In analyzing the data, the DPM (disintegrations per minute) of [^3H]MK-801 remaining on the filter were measured for each concentration of test compound or for 1 mM glycine. The DPM values for each concentration of a ligand (N=2) were averaged. The baseline value was determined from the best fit curve of the DPM values modeled using the GraphPad program and the log(agonist) vs. response(three parameters) algorithm was then subtracted from all points in the dataset. The % maximal [^3H]MK-801 binding was then calculated relative to that of 1 mM glycine: all baseline subtracted DPM values were divided by the average value for 1 mM glycine. The EC50 and % maximal activity were then obtained from the best fit curve of the % maximal [^3H]MK-801 binding data modelled using the GraphPad program and the log(agonist) vs. response(three parameters) algorithm.
(§5) The tables below summarize the results for the wild type NMDAR agonists NMDAR2A, NMDAR2B, NMDAR2C, and NMDAR2D, and whether the compound is not an agonist (−), is an agonist (+), or is a strong agonist (++), where column A is based on the % maximal [^3H]MK-801 binding relative to 1 mM glycine (−=0; <100%=+; and >100%=++); and column B is based on log EC50 values (0=−; ≥1×10^−9 M (e.g., −8)=+; and <1×10^−9 M (e.g., −10)=++).

Data set [6] has as its target T6, NMDAR2D expressing HEK cell membranes (Homo sapiens, UniProt O15399+Q05586).
T6 construct: expressed in transfected cells; host or cells: HEK cells (membrane extract)
The data set can be described thus: NMDAR agonist assay, [3H]MK-801 binding, NMDAR2D. The data set is classed as biochemical. Particulars: 50 μM glutamate; read-out: NMDAR2D B: log EC50 (converted). Here is the method:
as §2, §3, §4, §5

Data set [7] can be described thus: IV pharmacokinetics. Details: species or system Sprague Dawley rats. As to conditions: Sprague Dawley, in vivo, rat, 2 mg/kg, normal saline. Here is the method: Sprague Dawley rats were dosed intravenously using a normal saline formulation containing 2 mg/kg of the compounds identified in the below table. The table below summarizes the results of the IV pharmacokinetics.

A short description of data set [8]: Oral pharmacokinetics (plasma, brain, CSF). It is filed as in vivo, Sprague Dawley rats. Particulars: Sprague Dawley, plasma, po, rat, per os, 10 mg/kg. Here is the method:
In another experiment, Sprague Dawley rats were dosed per os using a normal saline formulation containing 10 mg/kg of the compounds identified in the table below. Plasma, brain, and CSF samples were analyzed at various time points over a 24 hour period. The table below summarizes the results of the oral pharmacokinetics.

The test system of data set [9] is Sprague Dawley rats. The data set is described as follows: Porsolt forced swim test. It is filed as in vivo. As to conditions: 0.1 mg/kg; for % reduction in float time: relative to vehicle group. Here is the method: A non-clinical in vivo pharmacology study (Porsolt assay) was performed to measure antidepressant-like effects. A negative control (0.5% sodium carboxymethyl cellulose in 0.9% sterile saline vehicle) and a positive control (fluoxetine) are shown for comparison against test compound. The study allowed for the evaluation of the effects of each compound on the Porsolt forced swim test as assessed by the rats' response (reduced floating time) during a 5-minute swimming test.
Male 2-3 month old Sprague Dawley rats were used (Harlan, Indianapolis, IN). Rats were housed in Lucite cages with aspen wood chip bedding, maintained on a 12:12 light:dark cycle (lights on at 5 AM), and given ad libitum access to Purina lab chow (USA) and tap water throughout the study.
The Porsolt forced swim test adapted for use in rats was performed as described by Burgdorf et al., (The long-lasting antidepressant effects of rapastinel (GLYX-13) are associated with a metaplasticity process in the medial prefrontal cortex and hippocampus. Neuroscience 308:202-211, 2015). Animals were placed in a 46 cm tall×20 cm in diameter clear glass tube filled to 30 cm with tap water (23±1° C.) for 15 min on the first day (habituation) and 5 min on the subsequent test day. Positive control fluoxetine was dosed 3 times (24 h, 5 h and 1 h) prior to testing. Animals were tested 1 h or 24 h post-dosing with the test compounds or vehicle. Animals received a 15 min habituation session 1 day before the 5 min test. Water was changed after every other animal. Animals were videotaped, and floating time as defined as the minimal amount of effort required to keep the animals head above water was scored offline by a blinded experimenter with high inter-rater reliability (Pearson's r>0.9).
Each compound tested at dose level shown. Significance vs. vehicle group for each experiment is marked. […] A compound marked “No” was not statistically significant from vehicle. Data was averaged for test compound and vehicle groups (N approximately 8 per group) and the percent reduction in floating for group treated with test compound relative to group treated with vehicle is shown.

T3 sequence (Q13224 27-1484, other chains not shown): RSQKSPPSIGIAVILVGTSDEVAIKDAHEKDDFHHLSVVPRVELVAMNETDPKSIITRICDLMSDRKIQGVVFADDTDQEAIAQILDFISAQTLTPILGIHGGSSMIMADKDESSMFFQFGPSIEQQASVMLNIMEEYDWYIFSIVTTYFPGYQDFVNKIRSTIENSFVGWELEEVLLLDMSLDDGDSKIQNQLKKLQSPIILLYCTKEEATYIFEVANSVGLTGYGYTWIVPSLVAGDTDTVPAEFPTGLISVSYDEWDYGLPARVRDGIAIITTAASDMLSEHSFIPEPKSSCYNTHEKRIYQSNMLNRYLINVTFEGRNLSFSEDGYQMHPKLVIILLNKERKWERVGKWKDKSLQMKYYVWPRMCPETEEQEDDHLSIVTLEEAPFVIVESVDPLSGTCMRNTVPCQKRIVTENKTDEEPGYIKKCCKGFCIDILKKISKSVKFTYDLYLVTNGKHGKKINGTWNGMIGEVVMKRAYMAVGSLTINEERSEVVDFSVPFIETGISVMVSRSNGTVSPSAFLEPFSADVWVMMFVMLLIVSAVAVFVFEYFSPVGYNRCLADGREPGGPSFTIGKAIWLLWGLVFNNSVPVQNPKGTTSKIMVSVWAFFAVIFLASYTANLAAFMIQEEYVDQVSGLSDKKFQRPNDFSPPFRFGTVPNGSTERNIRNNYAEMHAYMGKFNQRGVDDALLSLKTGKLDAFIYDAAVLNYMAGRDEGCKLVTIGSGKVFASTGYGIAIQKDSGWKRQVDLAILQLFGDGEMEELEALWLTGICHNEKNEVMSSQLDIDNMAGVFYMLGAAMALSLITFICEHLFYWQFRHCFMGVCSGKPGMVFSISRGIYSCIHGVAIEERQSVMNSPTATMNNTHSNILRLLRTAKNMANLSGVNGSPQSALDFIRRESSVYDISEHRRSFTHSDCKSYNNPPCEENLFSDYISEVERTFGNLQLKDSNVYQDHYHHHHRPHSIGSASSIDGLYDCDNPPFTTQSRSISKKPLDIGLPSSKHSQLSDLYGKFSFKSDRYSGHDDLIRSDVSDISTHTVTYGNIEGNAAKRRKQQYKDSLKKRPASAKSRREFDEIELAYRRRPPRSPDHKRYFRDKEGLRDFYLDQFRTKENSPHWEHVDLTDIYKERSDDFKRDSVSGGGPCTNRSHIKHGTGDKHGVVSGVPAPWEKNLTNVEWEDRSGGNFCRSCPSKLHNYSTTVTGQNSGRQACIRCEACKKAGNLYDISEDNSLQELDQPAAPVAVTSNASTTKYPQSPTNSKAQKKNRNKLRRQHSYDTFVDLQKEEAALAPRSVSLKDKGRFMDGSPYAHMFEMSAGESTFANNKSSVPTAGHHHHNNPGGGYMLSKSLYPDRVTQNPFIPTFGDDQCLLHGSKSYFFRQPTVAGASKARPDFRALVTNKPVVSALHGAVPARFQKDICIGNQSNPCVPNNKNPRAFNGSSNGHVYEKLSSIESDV
T4 sequence (Q14957 20-1233, other chains not shown): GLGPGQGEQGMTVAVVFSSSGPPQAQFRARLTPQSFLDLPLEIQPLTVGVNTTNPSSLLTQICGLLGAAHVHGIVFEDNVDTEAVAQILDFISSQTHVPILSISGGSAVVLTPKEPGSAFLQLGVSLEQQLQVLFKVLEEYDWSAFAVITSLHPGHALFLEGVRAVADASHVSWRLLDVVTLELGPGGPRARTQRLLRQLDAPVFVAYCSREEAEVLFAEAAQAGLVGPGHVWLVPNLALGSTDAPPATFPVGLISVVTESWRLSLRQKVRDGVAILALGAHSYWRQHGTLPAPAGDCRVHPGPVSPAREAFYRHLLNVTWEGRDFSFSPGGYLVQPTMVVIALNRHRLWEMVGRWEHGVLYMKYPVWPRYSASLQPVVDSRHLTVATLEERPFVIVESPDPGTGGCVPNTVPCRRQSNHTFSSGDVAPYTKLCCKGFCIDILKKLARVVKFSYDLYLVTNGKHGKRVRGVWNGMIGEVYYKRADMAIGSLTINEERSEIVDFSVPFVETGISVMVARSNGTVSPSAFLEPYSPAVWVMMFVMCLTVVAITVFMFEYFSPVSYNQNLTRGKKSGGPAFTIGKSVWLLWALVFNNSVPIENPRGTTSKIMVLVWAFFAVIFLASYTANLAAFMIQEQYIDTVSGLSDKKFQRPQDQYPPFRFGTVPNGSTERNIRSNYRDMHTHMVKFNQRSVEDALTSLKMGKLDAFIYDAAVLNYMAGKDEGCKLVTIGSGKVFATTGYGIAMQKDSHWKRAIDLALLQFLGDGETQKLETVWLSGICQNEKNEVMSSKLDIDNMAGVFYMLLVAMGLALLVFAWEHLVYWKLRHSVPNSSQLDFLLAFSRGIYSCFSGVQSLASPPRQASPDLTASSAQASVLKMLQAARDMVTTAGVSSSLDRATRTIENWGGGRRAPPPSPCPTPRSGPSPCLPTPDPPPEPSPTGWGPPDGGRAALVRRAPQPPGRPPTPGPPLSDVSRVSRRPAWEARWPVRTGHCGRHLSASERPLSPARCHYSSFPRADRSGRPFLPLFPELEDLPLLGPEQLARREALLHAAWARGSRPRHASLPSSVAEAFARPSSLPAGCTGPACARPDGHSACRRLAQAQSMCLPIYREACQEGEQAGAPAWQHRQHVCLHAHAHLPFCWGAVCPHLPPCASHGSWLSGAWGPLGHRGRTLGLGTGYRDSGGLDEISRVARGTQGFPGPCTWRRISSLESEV
T6 sequence (O15399 28-1336, other chains not shown): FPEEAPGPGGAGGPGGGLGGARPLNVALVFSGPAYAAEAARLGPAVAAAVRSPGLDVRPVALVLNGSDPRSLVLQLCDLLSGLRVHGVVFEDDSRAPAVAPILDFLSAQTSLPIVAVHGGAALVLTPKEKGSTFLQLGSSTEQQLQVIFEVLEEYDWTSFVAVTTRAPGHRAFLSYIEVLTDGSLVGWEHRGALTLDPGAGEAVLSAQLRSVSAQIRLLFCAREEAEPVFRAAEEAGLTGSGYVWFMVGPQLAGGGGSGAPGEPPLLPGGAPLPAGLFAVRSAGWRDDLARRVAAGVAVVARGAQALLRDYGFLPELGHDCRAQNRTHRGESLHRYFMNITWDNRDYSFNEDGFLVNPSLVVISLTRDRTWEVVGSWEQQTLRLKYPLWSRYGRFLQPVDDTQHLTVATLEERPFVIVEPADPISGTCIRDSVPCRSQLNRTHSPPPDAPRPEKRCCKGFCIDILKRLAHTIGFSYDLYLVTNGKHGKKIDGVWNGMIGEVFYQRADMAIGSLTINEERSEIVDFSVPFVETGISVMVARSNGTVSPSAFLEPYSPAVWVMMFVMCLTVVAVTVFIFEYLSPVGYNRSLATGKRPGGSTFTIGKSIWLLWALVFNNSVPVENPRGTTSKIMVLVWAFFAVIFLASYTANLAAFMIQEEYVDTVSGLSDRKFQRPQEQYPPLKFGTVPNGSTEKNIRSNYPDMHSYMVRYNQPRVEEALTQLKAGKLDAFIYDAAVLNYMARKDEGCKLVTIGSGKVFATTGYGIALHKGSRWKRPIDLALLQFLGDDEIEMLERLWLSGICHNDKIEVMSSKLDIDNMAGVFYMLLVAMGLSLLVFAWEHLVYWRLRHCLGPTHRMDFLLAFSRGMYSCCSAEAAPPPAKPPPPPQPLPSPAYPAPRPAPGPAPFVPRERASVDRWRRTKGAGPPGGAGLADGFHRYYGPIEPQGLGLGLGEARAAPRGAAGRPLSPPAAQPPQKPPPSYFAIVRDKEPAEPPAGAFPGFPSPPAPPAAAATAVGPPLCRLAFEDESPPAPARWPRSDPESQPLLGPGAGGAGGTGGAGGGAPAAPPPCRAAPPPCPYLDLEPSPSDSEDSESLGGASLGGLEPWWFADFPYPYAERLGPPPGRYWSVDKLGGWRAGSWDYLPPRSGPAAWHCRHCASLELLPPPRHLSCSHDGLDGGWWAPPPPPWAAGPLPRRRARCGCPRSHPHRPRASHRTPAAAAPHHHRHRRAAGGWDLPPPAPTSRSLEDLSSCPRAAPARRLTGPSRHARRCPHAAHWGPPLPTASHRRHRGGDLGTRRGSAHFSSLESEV
T5 sequence (O15399 28-1336, other chains not shown): as above

Regarding `COc1ccc(CN2C[C@]3(CCNC(=O)C3)C2=O)cc1` [AA-1, 2-(4-methoxybenzyl)-2,7-diazaspiro[3.5]nonane-1,6-dione], in [1], the Emax was determined as 0%. The “NMDAR2A B: log EC50” value in data set [2] is “−”. Further, the EC50 in [3] (read-out: NMDAR2B B: log EC50 (converted)) was below 1 nM. The Emax in [3] (0.25 h, read-out: NMDAR2B A: % maximal [3H]MK-801 binding relative to 1 mM glycine) was below 100%. Also, in [4], the “NMDAR2C A: % maximal [3H]MK-801 binding relative to 1 mM glycine” value was “− (−=0)”. Moreover, in [5], the “NMDAR2D A: % maximal [3H]MK-801 binding relative to 1 mM glycine” value was “+ (<100%=+)”. The EC50 in data set [6] is at least 1 nM. In [7], this compound gave an AUC(0-t) of 3430 ng·h/mL, a C0 of 2340 ng/mL, a clearance of 9.69 mL/min/kg and a half-life of 67.2 min. The Vd in data set [7] (read-out: Vss) stood at 0.76 L/kg. Also, in [8], the AUC(0-t) stood at 15500 ng·h/mL, the bioavailability is 90% and the peak level (Cmax) was 8920 ng/mL. Also, the Tmax in [8] (normal saline) came to 19.8 min. In data set [9] (1 h post-dose), the Significance vs. vehicle entry is listed as “Yes (found to be statistically significant (p<=0.05) from vehicle at dose level shown)” and the “% reduction in float time” value worked out at 74.4%. For the same compound, in [9] (24 h post-dose), the Significance vs. vehicle result is recorded as “Yes (found to be statistically significant (p<=0.05) from vehicle at dose level shown)” and the “% reduction in float time” value came out at 69.50%.

What is called EC50 is the concentration at which the effect is half-maximal. A word on the AUC(0-t): it is exposure summed from dosing to a finite time, without extrapolation to infinity. As usually defined, the clearance is the volume of plasma or blood freed of the substance per unit of time. Broadly, the half-life is how long it takes for the measured level to halve. One may read the bioavailability as dose-corrected exposure relative to a reference, in per cent. By Tmax is commonly meant the time at which the peak concentration occurs. Usually Cmax stands for the maximum level reached in the sampled fluid or tissue.

These data come from patent US12084444B2, “Spiro-lactam NMDA modulators and methods of using same” (Tenacia Biotechnology (Hong Kong) Co., Limited, priority 2016, dated 2024).
